Measured values from US20220265629A1, “TREATMENT OF SYSTOLIC DYSFUNCTION AND HEART FAILURE WITH REDUCED EJECTION FRACTION WITH THE COMPOUND (R)-4-(1-((3-(DIFLUOROMETHYL)-1-METHYL-1H-PYRAZOL-4-YL)SULFONYL)-1-FLUOROETHYL)-N-(ISOXAZOL-3-YL)PIPERIDINE-1-CARBOXAMIDE” (MyoKardia, Inc., priority 2019, published 2022).
Like-named read-outs stand apart in the source and are kept apart here.

Experiment: Food effect cross-over study, 200 mg (25 mg tablets), healthy volunteers: plasma pharmacokinetics
Type: in vivo, human
Details: for Plasma concentration, Geometric Mean / Plasma concentration, Mean / Plasma concentration, Median: Predose; for concentration at 1 h / concentration at 2 h / concentration at 3 h / concentration at 4 h / concentration at 5 h / concentration at 6 h / concentration at 9 h / concentration at 12 h / concentration at 18 h / concentration at 24 h / concentration at 36 h: human, plasma, oral; for concentration at 1 h: 1 hour postdose; for concentration at 2 h: 2 hours postdose; for concentration at 3 h: 3 hours postdose; for concentration at 4 h: 4 hours postdose; for concentration at 5 h: 5 hours postdose; for concentration at 6 h: 6 hours postdose; for concentration at 9 h: 9 hours postdose; for concentration at 12 h: 12 hours postdose; for concentration at 18 h: 18 hours postdose; for concentration at 24 h: 24 hours postdose; for concentration at 36 h: 36 hours postdose
From the text: This example describes a clinical study for establishing, in healthy volunteers, the effect of a high fat, high caloric meal on the PK profile of Compound I, as compared to administration of the drug in the fasted state. The study also was intended to determine the safety and tolerability after a single oral dose of Compound I in the fed and fasted state in healthy volunteers. The measurements of PK, PD, and other clinical parameters were done as described in Example 1 above.
This study was an open-label, randomized, two-period cross-over study in healthy volunteers aged 18-55 years. Subjects were screened up to 28 days before the first treatment period. Subjects were admitted to the clinical site on Day −1 (the day before dosing) of Period 1. Approximately half of the subjects randomly received a single dose of Compound I on Day 1 of the first treatment period after the ingestion of a high fat, high caloric breakfast, and the remainder were closed in the fasted state. Any subject with a preclose resting HR≥95 beats per minute (bpm) was considered ineligible and was not treated. Any subjects with an acute gastrointestinal disorder which could impact drug/food absorption (e.g., vomiting, diarrhea) were rescheduled. Subjects were confined to the clinic until Day 4, and discharged after the 72-hour postclose PK and laboratory samples and vital signs were obtained. After a washout between dosing from 7 to 10 days (or, after consultation with the Investigator, up to 21 days after initial dosing if the subject was unable to attend within the 7 to 10-day window), the subject was admitted for Period 2. The sequence of fed/fasted versus fasted/fed periods was randomized. Subjects returned after the second treatment period for a safety follow-up visit on Day 7 (±1 day).
In both treatment periods, Compound I was administered with 240 mL of water. In the fasted state, the subjects fasted for 10 hours before and for 4 hours after the administration of Compound I. Water could have been ingested up to 1 hour before and after 1 hour post dosing. In the fed state, the subjects fasted for 10 hours before and for 4 hours after the ingestion of the meal, but could have ingested water up to 1 hour before and 1 hour after dosing. In the fed state, the subjects started ingesting the high fat, high caloric meal within 30 minutes prior to Compound I administration and finished the meal within 30 minutes. The meal contained approximately 800 to 1000 calories with about 50% of the calories from fat. The meal consisted of approximately 150 calories from protein, 250 calories from carbohydrate, and 500-600 calories from fat. An example of the meal was a breakfast consisting of two eggs fried in butter, two strips of bacon, two slices of buttered toast, 4 ounces of hash brown potatoes, and 8 ounces of whole milk.
Each subject received two oral doses of 200 mg of Compound I formulated as 25 mg tablets (8 tablets) in a randomized, cross-over fashion, once in the fasted state and the other time after the ingestion of a high fat, high caloric breakfast. There was a washout of between 7 and 21 days between the administrations of the two closes. The Compound I drug substance was a crystalline, free-base, synthetic molecule with a molecular weight of 435.4.
Plasma drug concentrations were measured as described in Example 1 above. Blood samples to measure Compound I plasma concentration were collected at various time points, including on Day 1 preclose (1 hour prior to dosing) and at 1 (±5 min), 2 (±5 min), 3 (±5 min), 4 (+10 min), 5 (+10 min), 6 (+10 min), 9 (+20 min), 12 (+20 min), 18 (+30 min), 24 (+30 min), 36 (+30 min), 48 (+30 min), and 72 (+30 min) hours postclose on both treatment periods.
To assess the effect of food on the PK of Compound I, the two one-sided t-test procedure was used to construct 90% CI around the geometric mean ratios (fed/fasted) of plasma AUCinf, AUClast, and Cmax. […]

[1] = Fasted, read-out: Plasma concentration, Geometric Mean
[2] = Fasted, read-out: Plasma concentration, Mean
[3] = Fasted, read-out: Plasma concentration, Median
[4] = Fed, read-out: Plasma concentration, Geometric Mean
[5] = Fed, read-out: Plasma concentration, Mean
[6] = Fed, read-out: Plasma concentration, Median

## Cn1cc(S(=O)(=O)[C@@](C)(F)C2CCN(C(=O)Nc3ccon3)CC2)c(C(F)F)n1 [Compound I, (R)-4-(1-((3-(difluoromethyl)-1-methyl-1H-pyrazol-4-yl)sulfonyl)-1-fluoroethyl)-N-(isoxazol-3-yl)piperidine-1-carboxamide]
  exposure (Cmax) higher in the fed state versus the fasted state: ~60%
N = 11
  AUCinf, Geometric Mean Ratio - Fed/Fasted: 154.28 % of Reference
  AUClast, Geometric Mean Ratio - Fed/Fasted: 154.02 % of Reference
  Cmax, Geometric Mean Ratio - Fed/Fasted: 158.11 % of Reference
Fasted
  Plasma concentration, Geometric Mean: 0.000 ng/mL
  Plasma concentration, Mean: 0.000 ng/mL
  Plasma concentration, Median: 0.000 ng/mL
Fed
  Plasma concentration, Geometric Mean: 0.000 ng/mL
  Plasma concentration, Mean: 0.092 ng/mL
  Plasma concentration, Median: 0.000 ng/mL
Fasted state
  Tmax, Median (range): 5 h
Fed state
  Tmax, Median (range): 5.5 h
[1]
  concentration at 1 h: 1180 ng/mL
  concentration at 2 h: 1780 ng/mL
  concentration at 3 h: 2090 ng/mL
  concentration at 4 h: 2190 ng/mL
  concentration at 5 h: 2270 ng/mL
  concentration at 6 h: 2170 ng/mL
  concentration at 9 h: 1970 ng/mL
  concentration at 12 h: 1720 ng/mL
  concentration at 18 h: 1290 ng/mL
  concentration at 24 h: 1070 ng/mL
  concentration at 36 h: 546 ng/mL
[2]
  concentration at 1 h: 1360 ng/mL
  concentration at 2 h: 1830 ng/mL
  concentration at 3 h: 2120 ng/mL
  concentration at 4 h: 2220 ng/mL
  concentration at 5 h: 2310 ng/mL
  concentration at 6 h: 2220 ng/mL
  concentration at 9 h: 2000 ng/mL
  concentration at 12 h: 1740 ng/mL
  concentration at 18 h: 1320 ng/mL
  concentration at 24 h: 1100 ng/mL
  concentration at 36 h: 578 ng/mL
[3]
  concentration at 1 h: 1600 ng/mL
  concentration at 2 h: 1820 ng/mL
  concentration at 3 h: 2180 ng/mL
  concentration at 4 h: 2280 ng/mL
  concentration at 5 h: 2400 ng/mL
  concentration at 6 h: 2320 ng/mL
  concentration at 9 h: 2040 ng/mL
  concentration at 12 h: 1800 ng/mL
  concentration at 18 h: 1360 ng/mL
  concentration at 24 h: 1170 ng/mL
  concentration at 36 h: 596 ng/mL
[4]
  concentration at 1 h: 916 ng/mL
  concentration at 2 h: 1470 ng/mL
  concentration at 3 h: 2000 ng/mL
  concentration at 4 h: 2610 ng/mL
  concentration at 5 h: 3040 ng/mL
  concentration at 6 h: 3140 ng/mL
  concentration at 9 h: 3050 ng/mL
  concentration at 12 h: 2780 ng/mL
  concentration at 18 h: 2030 ng/mL
  concentration at 24 h: 1660 ng/mL
[5]
  concentration at 1 h: 1320 ng/mL
  concentration at 2 h: 1920 ng/mL
  concentration at 3 h: 2340 ng/mL
  concentration at 4 h: 2810 ng/mL
  concentration at 5 h: 3150 ng/mL
  concentration at 6 h: 3200 ng/mL
  concentration at 9 h: 3080 ng/mL
  concentration at 12 h: 2840 ng/mL
  concentration at 18 h: 2080 ng/mL
  concentration at 24 h: 1720 ng/mL
[6]
  concentration at 1 h: 828 ng/mL
  concentration at 2 h: 1160 ng/mL
  concentration at 3 h: 2340 ng/mL
  concentration at 4 h: 3030 ng/mL
  concentration at 5 h: 3340 ng/mL
  concentration at 6 h: 3320 ng/mL
  concentration at 9 h: 3220 ng/mL
  concentration at 12 h: 2720 ng/mL
  concentration at 18 h: 2060 ng/mL
  concentration at 24 h: 1670 ng/mL
